Source: patent publication US12599588B2, “Inhibitor for V-ATPase activity, antibacterial agent, medicine, antibacterial method and screening method” (Japan Science and Technology Agency, priority 2019, dated 2026)
Read-outs that look alike come from different tables or passages of the source.

Experiments:
[1] = biological target: T1, V-ATPase (purified from enterococci or recombinant E. coli) (Enterococcus hirae, UniProt P43439+P43457); assay: ATPase activity measurement (molybdenum blue method, primary screening); assay type: biochemical
T1 construct: made in house; host or cells: Enterococcus hirae (native) or recombinant E. coli
Experimental: The ATPase activity can be measured by a molybdenum blue method for measuring absorbance of the inorganic phosphoric acid generated by hydrolysis of ATP. As the reaction conditions, conditions for measuring the ATPase activity can be adopted. As the buffer solution used in the reaction, Tris-HCl buffer can be used. The reaction time is usually 10 to 60 minutes, but can be appropriately adjusted depending on the air temperature or the like. The reaction of V-ATPase is terminated with the addition of a surfactant such as sodium dodecyl sulfate (SDS), and into which a color-developing liquid (such as ferrous sulfate) is added to give a color, and then the concentration of the inorganic phosphoric acid can be calculated by the measurement of the absorbance at a wavelength of 650 nm.
From the concentration of inorganic phosphoric acid calculated above, the inhibition rate of the V-ATPase reaction can be calculated. That is, a graph is created in which the inhibition rate is plotted on the vertical axis and the concentration of compound is plotted on the horizontal axis, and the concentration (IC50) at which the inhibition rate becomes 50% is determined. As the concentration of compound at which IC50 is obtained becomes lower, a higher V-ATPase inhibitory effect is exerted with a small amount, and accordingly, the compound can be taken as a candidate compound for the inhibitor for V-ATPase activity.
The V-ATPase was prepared by the method disclosed in the following papers. • Paper 1: Takeshi Murata, et. al, “Purification and Reconstitution of Na^+-translocating Vacuolar ATPase from Enterococcus hirae”, J. Biol. Chem. 272, 24885-24890 (1997) • Paper 2: Takeshi Murata, et. al, “Torque Generation of Enterococcus hirae V-ATPase”, J. Biol. Chem. 289, 31212-31223 (2014)
ATPase activity measurement was conducted by a molybdenum blue method that quantifies the inorganic phosphoric acid generated by hydrolysis of ATP with the use of absorbance measurement. The measurement was conducted in a 96-well plate, and 0.05% DDM (n-dodecyl-β-D-maltoside), 10 μg/mL of V-ATPase (purified from enterococci or recombinant E. coli), and 20 μM of a compound were added into a buffer (100 mM Tris-HCl at pH 8.5, 100 mM NaCl, 5 mM MgSO4, 10% glycerol). Into the mixture obtained above, ATP was added so as to be 5 mM, the whole amount was set to 100 μL, the reaction was started while stirring the mixture with a stirrer, and the reaction time was set to 30 minutes. Since the ATPase activity changes largely depending on the reaction temperature, the reaction time was adjusted within the range of 10 to 60 minutes corresponding to the air temperature on the day of the experiment. With the addition of 50 μL of 20% SDS, the V-ATPase was denatured and the reaction was terminated, and into the resultant mixture, 75 μL of color-developing liquid (5% ferrous sulfate, 1.6% ammonium molybdate, and 1 M sulfuric acid) was added to give a color. Immediately, the absorbance at a wavelength of 650 nm was measured by using a plate reader. Four kinds of KH2PO4 aqueous solutions of 0.2 mM, 0.5 mM, 1.0 mM, and 1.5 mM were reacted with MQ (ultrapure water) in the same experiment system, and then the activity of V-ATPase was measured by determining the concentration of generated inorganic phosphoric acid with the use of a created calibration curve. In this regard, a compound that had inhibited 50% or more of the activity of V-ATPase was diluted stepwisely so as to have a concentration of 10 μM, 5 μM, 2 μM, 1 μM, 500 nM, 200 nM, 100 nM, and 50 nM, and the measurement similar to the above was conducted.
From the results of the above measurement of ATPase activity, the inhibition rate was calculated comparing the decrease in the activity by assuming the activity under the condition of no compound addition as 100. A graph was created in which the inhibition rate was plotted on the vertical axis and the concentration of compound was plotted on the horizontal axis (FIG. 2). […]

[2] = test system: enterococci (Enterococcus hirae); assay: Growth experiment of enterococci (secondary screening), OD600 at pH 7.0 and pH 8.5; assay type: cell-based; parameters: Growth inhibition rate (%): concentration or dose not given beside the values; settings: for Specificity: growth inhibition at pH 8.5 versus pH 7.0
Experimental: In the culture of enterococci (Enterococcus hirae), a culture medium in which the Na^+ concentration had been adjusted by adding a buffer solution using 2% tryptone and 1% yeast extract as the base was used. In a case of adding glucose, glucose prepared in a 50% solution was added so as to be 1% into the culture medium when the culture medium was used. The whole amount 200 μL was cultured using a 96-well plate, and OD600 was measured every hour by using a plate reader. By using culture media at pH 7.0 and pH 8.5, the effect of pH on the growth was observed. In culture of bacteria, the pH often fluctuates largely due to the decomposition of the sugars required for the growth, and it is extremely important to maintain a constant pH in this experiment, and therefore, the pH was maintained constant with the addition of a buffer suitable for each pH. Since the V-ATPase is expressed only under an alkaline condition, the growth inhibition observed with the addition of an inhibitor is largely dependent on the pH.
IC50 and the like of the above 24 kinds of compounds are described in the following table. […] Furthermore, with respect to the symbol “n.a.”, a compound having a growth inhibition rate of 60% or more at pH 7.0 is determined that there was the growth inhibition. In addition, the growth inhibition rate of a compound having no clear inhibition is also recorded for reference.

[3] = IC50 (nM), Table 2, inhibition of V-ATPase ATPase activity, pH 8.5 buffer
[4] = high affinity for V-ATPase (IC50), unit inferred
[5] = Table 2, E. hirae growth, pH not stated (media pH 7.0 and pH 8.5)
[6] = Table 2, inhibition of V-ATPase ATPase activity, pH 8.5 buffer, read-out: IC50
[7] = Table 3, 2-phenyl benzimidazole derivatives
[8] = Table 3, 2-phenyl benzimidazole derivatives, read-out: IC50

SMILES	Growth inhibition rate (%) [2, 5] [%]	Specificity ([2]; Table 2)	IC50 [1, 6] [nM]	also measured
O=C1N=C(NC2CCCC2)S/C1=C\c1ccc(OC(F)F)cc1OC(F)F [Compound V-6, (Z)-5-(2,4-bis(difluoromethoxy)benzylidene)-2-(cyclopentylamino) thiazol-4 (5H)-one]	77.9	+ (there was no growth inhibition at pH 7.0 but was the growth inhibition at pH 8.5)		IC50 [1, 3]: 80 nM; IC50 [1, 4]: ≤ 400 nM; non-specific inhibition / non-specific bond [2]: no non-specific inhibition
CN(C)c1ccc2nc3ccc(N(C)C)cc3[s+]c2c1 [Compound V-27]	64.0	+ (there was no growth inhibition at pH 7.0 but was the growth inhibition at pH 8.5)		IC50 [1, 3]: 3000 nM
CC1=C(/C=C/C(C)=C/C=C/C(C)=C/C(=O)Nc2ccc(O)cc2)C(C)(C)CCC1 [Compound V-84, (2E,4E,6E,8E)-N-(4-hydroxyphenyl)-3,7-dimethyl-9-(2,6,6-trimethylcyclohexyl-1-en-1-yl)nona-2,4,6,8-tetraeneamide]	90.6	− (there was no growth inhibition in any case)		IC50 [1, 3]: 80 nM; IC50 [1, 4]: ≤ 400 nM; non-specific inhibition / non-specific bond [2]: non-specific inhibition
CCC(C)C1OC2(CCC1C)CC1CC(CC=C(C)C(OC3CC(OC)C(OC4CC(OC)C(O)C(C)O4)C(C)O3)C(C)C=CC=C3COC4C(O)C(C)=CC(C(=O)O1)C34O)O2 (stereo not drawn) [Compound V-85]	66.4	+ (there was no growth inhibition at pH 7.0 but was the growth inhibition at pH 8.5)		IC50 [1, 3]: 10000 nM
CCCCCCCCc1ccc(O)c(C=O)c1 [Compound V-91]	90.9	n.a. (there was the growth inhibition in any case)	850	
CCCCC#Cc1cncc(C(=O)N/N=C/c2cccs2)c1 [Compound V-99]	6.7	− (there was no growth inhibition in any case)	2500	
CCCCCOc1ccc(NC(=O)c2cccs2)cc1 [Compound V-103]	45.3	+ (there was no growth inhibition at pH 7.0 but was the growth inhibition at pH 8.5)		IC50 [1, 3]: 100 nM
CC(C)CN(CC(C)C)c1ccc([N+](=O)[O-])cc1/C=N/Nc1ccccc1 [Compound V-105]	90.8	n.a. (there was the growth inhibition in any case)	1000	
CC(Cc1ccc(O)c(O)c1)C(C)Cc1ccc(O)c(O)c1 (stereo not drawn) [Compound V-115]	0.3	− (there was no growth inhibition in any case)		IC50 [1, 3]: 400 nM
CC1(C)CC2(CC(C)(C)c3cc(O)c(O)cc32)c2cc(O)c(O)cc21 [Compound V-124]	49.2	+ (there was no growth inhibition at pH 7.0 but was the growth inhibition at pH 8.5)	300	
CCCCCCCCCOc1ccc(C=C2C(=O)NC(=O)NC2=O)cc1 [Compound V-130, 5-(4-(nonyloxy)benzylidene)pyrimidine-2,4,6 (1H,3H,5H)-trione]	88.2	− (there was no growth inhibition in any case)		IC50 [1, 3]: 20 nM; IC50 [1, 4]: ≤ 400 nM; non-specific inhibition / non-specific bond [2]: non-specific inhibition
CCCCC1CCC(C(=O)Oc2ccc(C=O)c(O)c2)CC1 (stereo not drawn) [Compound V-149]	90.5	n.a. (there was the growth inhibition in any case)	4500	
CN(C)C(=S)N/N=C1\C(=O)C(c2ccccc2)(c2ccccc2)c2ccccc21 [Compound V-150]	70.4	n.a. (there was the growth inhibition in any case)	500	
COc1ccc(C(=O)N/N=C/C(C)=C/c2ccc(C(C)C)cc2)cc1 [Compound V-153]	13.3	− (there was no growth inhibition in any case)	1000	
O=C(NC(c1ccccc1)c1cc([N+](=O)[O-])c2cccnc2c1O)C1CCCCC1 (stereo not drawn) [Compound V-157]	84.2	n.a. (there was the growth inhibition in any case)	2000	
Cc1ccc2[nH]c(-c3ccc(N4CCCC4)cc3)nc2c1 [Compound V-161-01]				IC50 ([1]; IC50 (nM), Table 3, 2-phenyl benzimidazole derivatives): 50 nM; Growth inhibition rate (%) [2, 7]: 89.7%; Specificity ([2]; Table 3): + (there was no growth inhibition at pH 7.0 but was the growth inhibition at pH 8.5)
CCc1ccc(-c2nc3cc(C)ccc3[nH]2)cc1 [Compound V-161-02]				IC50 [1, 8]: 120 nM; Growth inhibition rate (%) [2, 7]: 88.5%; Specificity ([2]; Table 3): + (there was no growth inhibition at pH 7.0 but was the growth inhibition at pH 8.5)
Cc1ccc2[nH]c(-c3ccc(Br)cc3)nc2c1 [Compound V-161-03]				IC50 [1, 8]: 120 nM; Growth inhibition rate (%) [2, 7]: 89.8%; Specificity ([2]; Table 3): + (there was no growth inhibition at pH 7.0 but was the growth inhibition at pH 8.5)
Cc1ccc2[nH]c(-c3ccc(I)cc3)nc2c1 [Compound V-161-04]				IC50 [1, 8]: 120 nM; Growth inhibition rate (%) [2, 7]: 90.3%; Specificity ([2]; Table 3): + (there was no growth inhibition at pH 7.0 but was the growth inhibition at pH 8.5)
COc1ccc(-c2nc3cc(C)ccc3[nH]2)cc1 [Compound V-161-10]				IC50 [1, 8]: 120 nM; Growth inhibition rate (%) [2, 7]: 86.8%; Specificity ([2]; Table 3): + (there was no growth inhibition at pH 7.0 but was the growth inhibition at pH 8.5)
CCOc1ccc2nc3cc(N)ccc3c(N)c2c1 [Compound V-170]	49.7	+ (there was no growth inhibition at pH 7.0 but was the growth inhibition at pH 8.5)	10000	
N=C(N)Nc1nc(-c2ccccc2)c2cc(F)ccc2n1 [Compound V-171]	85.6	+ (there was no growth inhibition at pH 7.0 but was the growth inhibition at pH 8.5)	2500	
CCCOc1ccc(/C=N/NC(=N)N)c(OCCC)c1 [Compound V-189]	91.2	+ (there was no growth inhibition at pH 7.0 but was the growth inhibition at pH 8.5)	4500	
COc1ccc(C(c2ccc3cccnc3c2O)N2CCOCC2)cc1 (stereo not drawn) [Compound V-201]	19.6	− (there was no growth inhibition in any case)	4000	
